Experimental findings from PubChem BioAssay (NCI) are described below.

Some test systems named below: NCI-H460 lung; MCF7 breast; RPMI-8226 leukemia; NCI-H522 lung; SNB-75 CNS; LOX IMVI melanoma; EKVX NSCLC; BT-549 breast; UO-31 renal; MOLT-4 leukemia.
What all share (test): DTP human tumour cell line panel, 48 h

SMILES strings stand for the structures.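 96-well plates; 48 h exposure; 5 concentrations. Endpoints by linear interpolation between flanking doses. Not reached: highest tested concentration assigned. Abbreviation: GI50, concentration required for 50% inhibition of growth. Definition used: TGI = concentration required for complete inhibition of growth.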

As usually defined, the TGI is the concentration giving total growth inhibition. Read a low TGI as greater sensitivity of the cells. The GI50 is the concentration giving 50% growth inhibition.

On to `CCCCc1cc2c(C)cc(=O)oc2c(O)c1O`, for which the TGI in the assay on NCI-H460 lung was > 100 µM; with MCF7 breast, 45.7 µM; in the assay on RPMI-8226 leukemia, 43.3 µM; in the assay on NCI-H522 lung it was 49 µM; with SNB-75 CNS it was > 100 µM; with LOX IMVI melanoma, 61 µM. The TGI in the assay with EKVX NSCLC is > 100 µM; with BT-549 breast it was 33.6 µM; with UO-31 renal, 54.6 µM; in the assay on MOLT-4 leukemia, > 100 µM.

Regarding `N=C1N(S(=O)(=O)c2ccccc2)[C@@H](Cc2ccccc2)[C@H](c2ccccc2)C1(c1ccccc1)c1ccccc1`, the TGI in the assay on NCI-H460 lung, in the assay on MCF7 breast, in the assay with RPMI-8226 leukemia, in the assay with NCI-H522 lung, in the assay with SNB-75 CNS and with LOX IMVI melanoma was > 100 µM in each case. Besides, the TGI with EKVX NSCLC, in the assay on BT-549 breast, with UO-31 renal and in the assay with MOLT-4 leukemia was > 100 µM throughout.

Take `COc1nc2c(c(=O)n1C)N[C@H]1[C@H](OC(C)=O)[C@@H](OC(C)=O)CO[C@H]1N2`: the TGI in the assay with NCI-H460 lung, with MCF7 breast, in the assay on RPMI-8226 leukemia, in the assay on NCI-H522 lung, in the assay with SNB-75 CNS and in the assay with LOX IMVI melanoma was > 100 µM throughout. In addition, the TGI in the assay with EKVX NSCLC, in the assay with BT-549 breast, with UO-31 renal and in the assay on MOLT-4 leukemia was > 100 µM throughout.

For the compound `c1ccc(CCNCc2ccco2)nc1`, the TGI with NCI-H460 lung is > 100 µM; with MCF7 breast, > 100 µM; in the assay with RPMI-8226 leukemia it was > 67.9 µM; in the assay with NCI-H522 lung, > 100 µM; in the assay with SNB-75 CNS, > 100 µM; with LOX IMVI melanoma, > 100 µM. Besides, the TGI with EKVX NSCLC, with BT-549 breast, in the assay with UO-31 renal and in the assay with MOLT-4 leukemia was > 100 µM throughout.

For the compound `Cc1ccncc1.F[B-](F)(F)F.[Pt+2].c1ccc(-c2cccc(-c3ccccn3)n2)nc1`, the TGI in the assay on NCI-H460 lung is 23.3 µM; in the assay on MCF7 breast, 25.7 µM; with RPMI-8226 leukemia it was 32.9 µM; in the assay on NCI-H522 lung, 36.3 µM; in the assay with SNB-75 CNS, > 89.7 µM; in the assay on LOX IMVI melanoma, > 88.4 µM. For the same compound, the TGI with EKVX NSCLC is > 73.5 µM; in the assay on BT-549 breast it was > 78.6 µM; in the assay with UO-31 renal, > 27.8 µM; in the assay on MOLT-4 leukemia, 39.1 µM. Besides, the GI50 in the assay on LOX IMVI melanoma was 1.28 µM; with BT-549 breast, 13.7 µM.

`O=C1C=CC(=O)C(CNc2ccc(C(=O)OC34CC5CC(CC(C5)C3)C4)cc2)=C1`: the TGI was found to be 32.9 µM in the assay on NCI-H460 lung; 27.5 µM in the assay with MCF7 breast; 7.01 µM in the assay on RPMI-8226 leukemia; 2.28 µM in the assay with NCI-H522 lung; 18.1 µM in the assay with SNB-75 CNS; 15.2 µM in the assay with LOX IMVI melanoma. Moreover, the TGI in the assay with EKVX NSCLC stood at 25.3 µM; in the assay on BT-549 breast it was 15.7 µM; in the assay with UO-31 renal, 16 µM; in the assay on MOLT-4 leukemia it was 8.34 µM.
